This test relates to L1210. In words: Capacity to inhibit tumor cells in vitro using L1210 murine leukemia cells. Type of test: functional, cell-based. Particulars: Mus musculus.

A word on the IC50: it is the point on the concentration scale where inhibition reaches its midpoint. Lower therefore signals inhibition by little substance. As to `NC1=NC(=O)C2N=NC([C@@H]3O[C@H](CO)[C@@H](O)[C@H]3O)=C2O1` (some centres not stated), half-maximal inhibition (IC50) required 100 µM. Compound `O=c1[nH]c(=O)c2[nH]nc([C@@H]3O[C@H](CO)[C@@H](O)[C@H]3O)c2o1` gave an IC50 of 0.2 µM.

Values taken from ChEMBL document CHEMBL1125272, “Synthetic approaches to the guanosine and xanthosine analogues 5-amino-3-beta-D-ribofuranosylpyrazolo[3,4-e][1,3]oxazin-7-one and 3-beta-D-ribofuranosylpyrazolo[3,4-e][1,3]oxazine-5,7-dione and studies of their antitumor potential” (J Med Chem, 1991).
